Measured values: patent US6462086B1, “Non-malignant disease treatment with Ras antagonists” (Ramot University Authority for Applied Research and …, priority 1999, dated 2002)

Legend:
Ras = assay: Amount of Ras in spleen lymphocytes of FTS-treated SJL mice (Western immunoblot, pan-Ras Ab); type: in vivo, mouse; details: FTS 5 mg/kg/day, 48 h following treatment, densitometry
Protocol: Naive SJL mice received either the vehicle or FTS (10 mg/Kg, i.p., twice a day) for 2 days. The total amounts of Ras were then determined in cell lysates prepared as detailed in (14). Briefly, spleen lymphocytes of the control and of the FTS-treated mice were homogenized in homogenization buffer as detailed previously (14-15). Total cellular protein (50 μg) corresponding to 1.2×10^6 cells, as separated by 12.5% sodium dodecylsulfate polyacrylamide gel electrophoresis (SDS-PAGE) and blotted onto nitrocellulose membranes. hmmunoblotting with pan-Ras Ab (pan-Ras Ab-3, Calbiochem), enhanced chemiluminescense assays (ECL) and densitometric analysis were then performed as detailed previously (14-15). Lymphocytes of vehicle- and of FTS-treated (5 mg/kg/day) SJL mice were obtained from the spleens of mice, 48 h following treatment. The cells where then homogenized and the total amount of Ras was determined by Western immunobloting with pan Ras antibody (14). The apparent amount of Ras in the lymphocytes of the FTS-treated mice was lower than that of the control lymphocytes.

[1] = system: spleen lymphocytes of MRL/lpr and MRL/++ mice; assay: MRL/lpr and MRL/++ mouse spleen lymphocyte proliferation ex vivo; type: in vivo; details: for response to ConA (stimulation index): 5 mg/Kg FTS for 3 months
Protocol: Mice were killed by cervical dislocation and spleens removed with sterile precautions and placed in disposable plastic Petri dishes containing Dulbecco's phosphate-buffered saline (DPBS). Single cell suspensions were obtained by expressing DPBS through the spleen using a syringe and 19 gauge needle. The cells were suspended in DPBS and centrifuged at 1100 rpm for 7 minutes. Erythrocytes were lysed by a 7-minute incubation in 0.83% (weight/volume) ammonium chloride, and cells were immediately washed three times with DPBS. Spleen cells were suspended to a concentration of 3×10^6 cells/ml in RPMI-1640 medium containing 5% fetal calf serum (FCS), 100 units/ml penicillin, 100 μg/ml streptomycin, 2 mM L-glutamine, 0.1 mM non-essential amino acids, 1 mM sodium pyruvate, and 50 μM 2-mercaptoethanol. Cells were cultured at a concentration of 6×10^5 cells/200 μl culture medium/well in 96-well, flat-bottomed, microculture plates, and were incubated for 72 hours in a humidified atmosphere of 95% air and 5% CO2 at 37° C. At the end of this time, 1 μCi tritiated thymidine (3H-TdR) was added to each well in a 10 μl volume and the cultures were further incubated for 18 hours. Cells from each microculture were harvested on fibroglass filters with multiharvester and counted in liquid scintillation β counter.
Mitogens and antigens were diluted to appropriate concentrations in the incubation medium and added to the wells at the beginning of incubation period to give a final concentration of 1.0 μg/ml lipopolysaccharide (LPS), 1.0 μg/ml Concanavalin A (ConA) or 10 μg/ml beta2-Glycoprotein I (beta2-GPI). Spontaneous proliferation (without mitogen or antigen) was also assessed.
To determine the effect of FTS on the MRL/lpr and MRL/++ mouse splenocyte proliferation ex vivo, spleen cells suspensions were prepared from three individual spleens per group, and were separately analyzed in culture (in triplicate). Splenocyte proliferation was evaluated in the presence of LPS, ConA or β2-GPI.
The results are expressed as the mean value of stimulation index per group. The stimulation index was calculated as follows: the mean dpm of cells cultured in the presence of mitogen/antigen divided by the mean dpm of cells cultured in the absence of mitogen/antigen.
The effect of FTS on lymphocyte proliferation in vivo in MRL/lpr and control MRL/++ mice was determined by ex-vivo experiments. The mice received 5 mg/Kg FTS (5 days a week) for 3 months and spleen lymphocyte proliferation assays were then performed in vitro with no added FTS. Baseline 3H-TdR incorporation was similar in all four groups examined except for a trend towards higher values in the MRL/++ mice treated with FTS. […] As described previously (18, 19), the response of the MRL/lpr mice to ConA was markedly lower than in the MRL/++ control mice. […] An antigen-specific proliferative response to β2-GPI was measured and a significant 50% reduction in the response of lymphocytes of FTS-treated mice was measured in both MRL/lpr and MRL/++ mice.

MRL/lpr mice = assay: Autoantibody levels in MRL mice after 2 months FTS (Example 4, ELISA); type: in vivo, mouse; details: FTS 5 mg/kg 5 days per week
Protocol: Two models of the antiphospholipid syndrome were compared. The MRL/lpr mouse, which is a […] model due to a mutaion in the Fas gene, and Balb-C mice immunized with ApoH (β2 glucoprotein 1), which is an induced model. The effect of 2 months FTS (5 days per week, 5 mg/kg) treatment on autoantibody levels in MRL mice (age 10 weeks to 18 weeks) is presented in FIG. 14. The levels of autoantibodies were measured at age 18 weeks by routine ELISA assays (repeated measures ANOVA, p=0.016). […] Anti-ApoH and anti-dsDNA were the major autoantibody groups found. Significant, but lower levels of autoantibodies to phospholipids and single stranded DNA were found in the MRL/lpr mice compared to the MLR/++ controls.

[2] = system: TAA-induced liver cirrhosis in Wistar rats; assay: Hepatic hydroxyproline levels in TAA-induced cirrhosis; type: in vivo, rat
Protocol: Liver cirrhosis was induced in rats by intraperitoneal (i.p.) administration of TAA 200 mg/kg twice weekly for 12 weeks, as previously described (1, 2). […] The FTS was dissolved in PBS and administered i.p. 3 times a week to rats according to their assigned groups. Four groups containing 6 rats each were treated as follows. One group received TAA 200 mg/kg i.p. twice a week and i.p. injections of PBS 3 days a week for 12 weeks (cirrhotic controls for the FTS-treated groups). A second group received TAA for 12 weeks and FTS 5 mg/kg, 3 times a week. […] The two control groups consisted of one that received PBS injections without TAA for 12 weeks (normal controls) and a group of 5 rats that received only FTS 5 mg/kg i.p. for 12 weeks to monitor the appearance of adverse effects. Quantitative determination of hepatic hydroxyproline levels was performed as previously described (2). The hydroxyproline levels were analyzed twice and separately for each liver.

[3] = system: cancers in animals mediated by oncogenic forms of Ras; details: cited from earlier work
[4] = MRL/lpr mice, age 10 to 18 weeks

CC(C)=CCC/C(C)=C/CC/C(C)=C/CSc1ccccc1C(=O)O [FTS, farnesyl thiosalicylic acid]
reduction in the amount of Ras in lymphocytes (Ras): 36±7%
reduction of the response to LPS (stimulation index) ([1]; 5 mg/Kg FTS 5 days a week for 3 months): two-fold reduction
decrease in splenocyte proliferation to ConA, LPS and β2-GPI ([1]; FTS 5 mg/Kg/day): 50%
response to ConA (stimulation index) ([1]; MRL/++ mice): not in lymphocytes of the FTS-treated MRL/++
response to ConA (stimulation index) ([1]; MRL/lpr mice): further reduced
reduction in the proliferative response to β2-GPI ([1]; both MRL/lpr and MRL/++ mice): 50%
levels of autoantibodies to phospholipids and single stranded DNA (minor antibodies) (MRL/lpr mice): did not lower significantly
levels of anti-ApoH autoantibodies (MRL/lpr mice; [4]): Significantly lower levels
levels of anti-double stranded DNA (dsDNA) autoantibodies (MRL/lpr mice; [4]): Significantly lower levels
hepatic hydroxyproline levels ([2]; TAA plus FTS, TAA alone 7.7±0.9): 3.8±0.5 mg/g protein
hepatic hydroxyproline levels ([2]; control group treated with FTS only): 1.6±0.1 mg/g protein
reduction in cancer cell growth ([3]; cancers in animals, in some cases): greater than 90%
body weight, specific organs size, blood count and chemistry ([3]; earlier studies in FTS-treated animals): no alteration
doses that effectively inhibited tumor growth ([3]; previous animal studies): 3 to 10 mg/kg
effect on normal cells ([3]; similar dosages as in cancer treatment): very little, if any, effect on normal cells
